Assays:
[1] = test system: HEK293 cells overexpressing APOL1 G2; assay: APOL1 G2 HEK293 cell rescue assay (reversal of cell death caused by overexpression of APOL1); format: cell-based; details: Homo sapiens, HEK293, HEK293 overexpressing APOL1 G2; geometric mean of at least 2 assay runs; † = single assay run
In short: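 Each compound tested in duplicate wells on one plate per run, with values usually the geometric mean across at least two runs on different days, occasionally from one run only. Read-out: concentration giving half-maximal rescue of APOL1 G2 overexpression-induced death of HEK293 cells.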

[2] = test system: Trypanosoma brucei Lister 427 VSG221 with APOL1 G2 recombinant protein; assay: APOL1 G2 trypanosome cell rescue assay (Example B5); format: cell-based; details: Trypanosoma brucei, 20 h, read-out: APOL1 G2 Trypanosome Rescue EC50, Trypanosoma brucei Lister 427 VSG221 with APOL1 G2 recombinant protein, 20 hours, CellTiter-Glo; geometric mean of at least 2 assay runs; † = single assay run
In short: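 Viability read by CellTiter-Glo luminescence after 20 h co-incubation (37° C, 5% CO2) of 250 trypanosomes/well in modified HMI-9 with test compound (duplicate 11-point, 2-fold dilutions, 0.4% DMSO) and APOL1 protein, […]. Protein: mature residues 28-398, E. coli inclusion-body refolded, tag cleaved, in DDM.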

Q: What does the source list for `CC(C)[C@]1(O)C[C@@H](N2C(=O)CCc3cc(OCCN4CCC5(CC4)C(=O)Nc4ccc(Cl)cc45)cnc32)C1` [Compound 317, 5-chloro-1′-[2-({7-oxo-8-[(cis)-3-hydroxy-3-(propan-2-yl)cyclobutyl]-5,6,7,8-tetrahydro-1,8-naphthyridin-3-yl}oxy)ethyl]-1,2-dihydrospiro[indole-3,4′-piperidin]-2-one]?
A: EC50 [1]: 0.0239 µM; EC50 [2]: 0.0115 µM

Q: Which EC50 [1] does the source give for `C[C@]1(O)C[C@@H](n2c(=O)ccc3cc(OCCN4CCC5(CC4)C(=O)Nc4ccc(Cl)cc45)cnc32)C1` [Compound 323, 5-chloro-1′-[2-({7-oxo-8-[(cis)-3-hydroxy-3-methylcyclobutyl]-7,8-dihydro-1,8-naphthyridin-3-yl}oxy)ethyl]-1,2-dihydrospiro[indole-3,4′-piperidin]-2-one] here?
A: 0.0173 µM

Q: And the EC50 [2]?
A: 0.0118 µM

Q: Which results are given for `C[C@]1(O)C[C@@H](n2c(=O)ccc3cc(OCCN4CCC5(CC4)C(=O)Nc4ccc(C(F)F)cc45)cnc32)C1` [Compound 324, 5-(difluoromethyl)-1′-[2-({7-oxo-8-[(cis)-3-hydroxy-3-methylcyclobutyl]-7,8-dihydro-1,8-naphthyridin-3-yl}oxy)ethyl]-1,2-dihydrospiro[indole-3,4′-piperidin]-2-one]?
A: EC50 [1]: 0.0256 µM; EC50 [2]: 0.00831 µM

Q: What does the source list for `O=C1CCc2cc(OCCN3CCC4(CC3)C(=O)Nc3ccc(Cl)cc34)cnc2N1C1CC(CO)C1` (stereo not shown) [Compound 326, 5-chloro-1′-[2-({8-[3-(hydroxymethyl)cyclobutyl]-7-oxo-5,6,7,8-tetrahydro-1,8-naphthyridin-3-yl}oxy)ethyl]-1,2-dihydrospiro[indole-3,4′-piperidin]-2-one]?
A: EC50 [1]: 0.0312 µM; EC50 [2]: 0.0327 µM

Q: Which results are given for `CC1(O)CC(CN2C(=O)CCc3cc(OCCN4CCC5(CC4)C(=O)Nc4ccc(Cl)cc45)cnc32)C1` (stereo not shown) [Compound 327, 5-chloro-1′-[2-({8-[(3-hydroxy-3-methylcyclobutyl)methyl]-7-oxo-5,6,7,8-tetrahydro-1,8-naphthyridin-3-yl}oxy)ethyl]-1,2-dihydrospiro[indole-3,4′-piperidin]-2-one]?
A: EC50 [1]: 0.0289 µM; EC50 [2]: 0.0134 µM

Q: `C[C@]1(O)C[C@@H](n2c(=O)ccc3cc(OCCN4CCC5(CC4)C(=O)Nc4ccc(OC(F)F)cc45)cnc32)C1` [Compound 328, 5-(difluoromethoxy)-1′-[2-({7-oxo-8-[(cis)-3-hydroxy-3-methylcyclobutyl]-7,8-dihydro-1,8-naphthyridin-3-yl}oxy)ethyl]-1,2-dihydrospiro[indole-3,4′-piperidin]-2-one] was tested. Which EC50 [1] did it give?
A: 0.0341 µM

Q: And the EC50 [2]?
A: 0.0239 µM

Q: What does the source list for `O=C1Nc2ccc(Cl)cc2C12CCN(CCOc1cnc(C3(CO)CC3)nc1)CC2` [Compound 333, 5-chloro-1′-[2-({2-[1-(hydroxymethyl)cyclopropyl]pyrimidin-5-yl}oxy)ethyl]-1,2-dihydrospiro[indole-3,4′-piperidin]-2-one]?
A: EC50 [1]: 0.043 µM; EC50 [2]: 0.074 µM

Q: For `CP(C)(=O)C1(c2ccc(OCCN3CCC4(CC3)C(=O)Nc3ccc(Cl)cc34)cc2)CC1` [Compound 343, 5-chloro-1′-(2-{4-[1-(dimethylphosphoryl)cyclopropyl]phenoxy}ethyl)-1,2-dihydrospiro[indole-3,4′-piperidin]-2-one], which EC50 [1] is on record?
A: 0.162 µM

Q: And the EC50 [2]?
A: 0.0642 µM

Q: What does the source list for `C[C@]1(O)C[C@@H](N2C(=O)Cc3cc(OCCN4CCC5(CC4)C(=O)Nc4ccc(Cl)cc45)cnc32)C1` [Compound 345, 5-chloro-1′-[2-({2-oxo-1-[(cis)-3-hydroxy-3-methylcyclobutyl]-1H,2H,3H-pyrrolo[2,3-b]pyridin-5-yl}oxy)ethyl]-1,2-dihydrospiro[indole-3,4′-piperidin]-2-one]?
A: EC50 [1]: 0.0364 µM; EC50 [2]: 0.0802 µM

Q: `C[C@]1(O)C[C@@H](N2C(=O)Cc3cc(OCCN4CCC5(CC4)C(=O)Nc4ccc(C(F)F)cc45)cnc32)C1` [Compound 346, 5-(difluoromethyl)-1′-[2-({2-oxo-1-[(cis)-3-hydroxy-3-methylcyclobutyl]-1H,2H,3H-pyrrolo[2,3-b]pyridin-5-yl]oxy)ethyl]-1,2-dihydrospiro[indole-3,4′-piperidin]-2-one] was tested. Which EC50 [1] did it give?
A: 0.0343 µM

Q: What about the EC50 [2] of the same compound?
A: 0.0377 µM

Q: `C[C@]1(O)C[C@@H](n2ccc3cc(OCCN4CCC5(CC4)C(=O)Nc4ccc(Cl)cc45)cnc32)C1` [Compound 349, 5-chloro-1′-[2-({1-[(cis)-3-hydroxy-3-methylcyclobutyl]-1H-pyrrolo[2,3-b]pyridin-5-yl}oxy)ethyl]-1,2-dihydrospiro[indole-3,4′-piperidin]-2-one] was tested. Which EC50 [1] did it give?
A: 0.0254 µM

Q: What about the EC50 [2] of the same compound?
A: 0.0331 µM

Q: Which results are given for `C[C@]1(O)C[C@@H](n2cnc3cc(OCCN4CCC5(CC4)C(=O)Nc4ccc(Cl)cc45)cc(C(F)(F)F)c32)C1` [Compound 352, 5-chloro-1′-[2-({1-[(cis)-3-hydroxy-3-methylcyclobutyl]-7-(trifluoromethyl)-1H-1,3-benzodiazol-5-yl}oxy)ethyl]-1,2-dihydrospiro[indole-3,4′-piperidin]-2-one]?
A: EC50 [1]: 0.0086 µM; EC50 [2]: 0.00822 µM

Q: `C[C@]1(O)C[C@@H](N2C(=O)NCc3cc(OCCN4CCC5(CC4)C(=O)Nc4ccc(Cl)cc45)cnc32)C1` [Compound 356, 5-chloro-1′-[2-({2-oxo-1-[(cis)-3-hydroxy-3-methylcyclobutyl]-1H,2H,3H,4H-pyrido[2,3-d]pyrimidin-6-yl}oxy)ethyl]-1,2-dihydrospiro[indole-3,4′-piperidin]-2-one] was tested. Which EC50 [1] did it give?
A: 0.0506 µM

Q: And the EC50 [2]?
A: 0.0374 µM

Q: How did the EC50 [1] turn out when `CC(C)(O)c1ncc(OCCN2CCC3(CC2)C(=O)Nc2ccc(Cl)cc23)cc1C(F)(F)F` [Compound 371, 5-chloro-1′-(2-{[6-(2-hydroxypropan-2-yl)-5-(trifluoromethyl)pyridin-3-yl]oxy}ethyl)-1,2-dihydrospiro[indole-3,4′-piperidin]-2-one] was run?
A: 0.0172 µM

Q: What about the EC50 [2] of the same compound?
A: 0.00916 µM

Q: Which results are given for `CCC1(O)CN(c2ncc(OCCN3CCC4(CC3)C(=O)Nc3ccc(Cl)cc34)cn2)C1` [Compound 397, 5-chloro-1′-(2-{[2-(3-ethyl-3-hydroxyazetidin-1-yl)pyrinlidin-5-yl]oxy}ethyl)-1,2-dihydrospiro[indole-3,4′-piperidin]-2-one]?
A: EC50 [1]: 0.0459 µM; EC50 [2]: 0.0852 µM

Q: With `C[C@]1(O)C[C@@H](n2ccc3cc(OCCN4CCC5(CC4)C(=O)Nc4ccc(C#N)cc45)cnc32)C1` [Compound 410, 2-oxo-1′-[2-({1-[(cis)-3-hydroxy-3-methylcyclobutyl]-1H-pyrrolo[2,3-b]pyridin-5-yl}oxy)ethyl]-1,2-dihydrospiro[indole-3,4′-piperidine]-5-carbonitrile] as the compound, how does the EC50 [1] read?
A: 0.0641 µM

Q: And the EC50 [2]?
A: 0.0924 µM

Q: Which EC50 [1] does the source give for `[2H]C([2H])(Oc1cnc2c(c1)CCC(=O)N2[C@H]1C[C@@](C)(O)C1)C([2H])([2H])N1CCC2(CC1)C(=O)Nc1ccc(Cl)cc12` [Compound 426, 5-chloro-1′-[2-({7-oxo-8-[(cis)-3-hydroxy-3-methylcyclobutyl]-5,6,7,8-tetrahydro-1,8-naphthyridin-3-yl}oxy)(1,1,2,2-^2H4)ethyl]-1,2-dihydrospiro[indole-3,4′-piperidin]-2-one] here?
A: 0.0378 µM

Q: And the EC50 [2]?
A: 0.0367 µM

Q: Which EC50 [1] does the source give for `C[C@]1(O)C[C@@H](n2cc3cc(OCCN4CCC5(CC4)C(=O)Nc4ccc(Cl)cc45)cc(C(F)(F)F)c3n2)C1` [Compound 427, 5-chloro-1′-[2-({2-[(cis)-3-hydroxy-3-methylcyclobutyl]-7-(trifluoromethyl)-2H-indazol-5-yl}oxy)ethyl]-1,2-dihydrospiro[indole-3,4′-piperidin]-2-one] here?
A: 0.0185 µM

Q: What about the EC50 [2] of the same compound?
A: 0.00662 µM

Q: What does the source list for `C[C@]1(O)C[C@@H](n2cc3cc(OCCN4CCC5(CC4)C(=O)Nc4ccc(C#N)cc45)cc(C(F)(F)F)c3n2)C1` [Compound 428, 2-oxo-1′-[2-({2-[(cis)-3-hydroxy-3-methylcyclobutyl]-7-(trifluoromethyl)-2H-indazol-5-yl}oxy)ethyl]-1,2-dihydrospiro[indole-3,4′-piperidine]-5-carbonitrile]?
A: EC50 [1]: 0.0543 µM; EC50 [2]: 0.0323 µM

Q: How did the EC50 [1] turn out when `C[C@]1(O)C[C@@H](n2nnc3cc(OCCN4CCC5(CC4)C(=O)Nc4ccc(C#N)cc45)cc(C(F)(F)F)c32)C1` [Compound 435, 2-oxo-1′-[2-({1-[(cis)-3-hydroxy-3-methylcyclobutyl]-7-(trifluoromethyl)-1H-1,2,3-benzotriazol-5-yl}oxy)ethyl]-1,2-dihydrospiro[indole-3,4′-piperidine]-5-carbonitrile] was run?
A: 0.0129 µM

Q: And the EC50 [2]?
A: 0.0145 µM

Q: `C[C@]1(O)C[C@@H](n2cnc3cc(OCCN4CCC5(CC4)C(=O)Nc4ccc(Cl)cc45)cc(C#N)c32)C1` [Compound 439, 5-(2-{5-chloro-2-oxo-1,2-dihydrospiro[indole-3,4′-piperidin]-1′-yl}ethoxy)-1-[(cis)-3-hydroxy-3-methylcyclobutyl]-1H-1,3-benzodiazole-7-carbonitrile] was tested. Which EC50 [1] did it give?
A: 0.0149 µM

Q: What about the EC50 [2] of the same compound?
A: 0.0202 µM

Q: Which EC50 [1] does the source give for `C[C@]1(O)C[C@@H](n2nnc3cc(OCCN4CCC5(CC4)C(=O)Nc4ccc(Cl)cc45)cnc32)C1` [Compound 440, 5-chloro-1′-[2-({3-[(cis)-3-hydroxy-3-methylcyclobutyl]-3H-[1,2,3]triazolo[4,5-b]pyridin-6-yl}oxy)ethyl]-1,2-dihydrospiro[indole-3,4′-piperidin]-2-one] here?
A: 0.0544 µM

Q: What about the EC50 [2] of the same compound?
A: 0.0705 µM

Q: Which EC50 [1] does the source give for `CC1(O)CC2(CN(c3ncc(OCCN4CCC5(CC4)C(=O)Nc4ccc(Cl)cc45)cn3)C2)C1` [Compound 459, 5-chloro-1′-{2-[(2-{6-hydroxy-6-methyl-2-azaspiro[3.3]heptan-2-yl}pyrimidin-5-yl)oxy]ethyl}-1,2-dihydrospiro[indole-3,4′-piperidin]-2-one] here?
A: 0.029 µM

Q: What about the EC50 [2] of the same compound?
A: 0.0498 µM

— patent US12344610B2, “APOL1 inhibitors and methods of use” (Maze Therapeutics, Inc., priority 2022, dated 2025)
